Measured values published in patent publication US7517874B2 (priority 2007, dated 2009).

Key:
[1] = target: T1, rat CB2 receptor (rCB2) (Rattus norvegicus, UniProt Q9QZN9); assay: cell-based; type: cell-based; conditions: for +/− RCB2: agonist or inverse agonist at rCB2
T1 sequence (Q9QZN9 1-360): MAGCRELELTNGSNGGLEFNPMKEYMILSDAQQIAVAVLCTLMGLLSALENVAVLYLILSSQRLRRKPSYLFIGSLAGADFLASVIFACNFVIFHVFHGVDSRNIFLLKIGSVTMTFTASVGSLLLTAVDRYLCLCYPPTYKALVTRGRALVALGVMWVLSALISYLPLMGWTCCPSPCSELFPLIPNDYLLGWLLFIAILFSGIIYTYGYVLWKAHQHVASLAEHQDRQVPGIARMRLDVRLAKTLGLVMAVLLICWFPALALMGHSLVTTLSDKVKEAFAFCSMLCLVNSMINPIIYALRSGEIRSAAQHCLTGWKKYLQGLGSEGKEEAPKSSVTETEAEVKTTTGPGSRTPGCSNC
Method in brief: (§1)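 Agonism or inverse agonism was assessed as change in intracellular cAMP in CHO-K1 cells expressing human CB1 or rat CB2 (genomic DNA, pcDNA3.1).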

[2] = target: human CB1 receptor (hCB1) (Homo sapiens, UniProt P21554); assay: cell-based; type: cell-based
Method in brief: as §1

Sequence of human CB1 receptor (hCB1) (P21554 whole entry): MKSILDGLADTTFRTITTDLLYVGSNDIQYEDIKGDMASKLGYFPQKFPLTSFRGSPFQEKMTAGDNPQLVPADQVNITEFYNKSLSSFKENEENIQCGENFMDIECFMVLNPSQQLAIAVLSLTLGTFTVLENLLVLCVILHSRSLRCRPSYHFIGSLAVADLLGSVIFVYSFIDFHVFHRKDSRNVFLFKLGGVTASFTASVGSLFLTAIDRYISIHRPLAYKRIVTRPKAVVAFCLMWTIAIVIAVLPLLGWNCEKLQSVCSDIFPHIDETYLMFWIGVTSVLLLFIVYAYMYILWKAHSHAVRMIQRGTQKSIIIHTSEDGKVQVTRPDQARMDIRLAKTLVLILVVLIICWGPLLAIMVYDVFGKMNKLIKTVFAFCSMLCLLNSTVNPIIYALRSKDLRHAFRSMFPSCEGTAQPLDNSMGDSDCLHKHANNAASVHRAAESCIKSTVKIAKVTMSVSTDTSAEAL

SMILES | +/− RCB2 [1] | EC50 [2] [µM] | EC50 [1] [µM]
CNC(=O)[C@@H](NC(=O)c1nc(-c2cc(F)cc(F)c2)n2c1CN(C)CCC2)C(C)(C)C [Compound 331, (S)-3-(3,5-difluorophenyl)-N-(3,3-dimethyl-1-(methylamino)-1-oxobutan-2-yl)-8-methyl-6,7,8,9-tetrahydro-5H-imidazo[1,5-a][1,4]diazepine-1-carboxamide] | + | > 10 | 
CNC(=O)[C@@H](NC(=O)c1nc(-c2ccc(C)cc2)n2c1CN(C)CCC2)C(C)(C)C [Compound 332, (S)-N-(3,3-dimethyl-1-(methylamino)-1-oxobutan-2-yl)-8-methyl-3-p-tolyl-6,7,8,9-tetrahydro-5H-imidazo[1,5-a][1,4]diazepine-1-carboxamide] |  | > 10 | > 10
CNC(=O)[C@@H](NC(=O)c1nc(-c2ccccc2OC(F)(F)F)n2c1CN(C)CCC2)C(C)(C)C [Compound 333, (S)-N-(3,3-dimethyl-1-(methylamino)-1-oxobutan-2-yl)-8-methyl-3-(2-(trifluoromethoxy)phenyl)-6,7,8,9-tetrahydro-5H-imidazo[1,5-a][1,4]diazepine-1-carboxamide] | + | > 10 | 
CNC(=O)[C@@H](NC(=O)c1nc(-c2ccc(C)c(Cl)c2)n2c1CN(C)CCC2)C(C)(C)C [Compound 334, (S)-3-(3-chloro-4-methylphenyl)-N-(3,3-dimethyl-1-(methylamino)-1-oxobutan-2-yl)-8-methyl-6,7,8,9-tetrahydro-5H-imidazo[1,5-a][1,4]diazepine-1-carboxamide] |  | > 10 | > 10
CNC(=O)[C@@H](NC(=O)c1nc(-c2cc(C)ccc2Cl)n2c1CN(C)CCC2)C(C)(C)C [Compound 335, (S)-3-(2-chloro-5-methylphenyl)-N-(3,3-dimethyl-1-(methylamino)-1-oxobutan-2-yl)-8-methyl-6,7,8,9-tetrahydro-5H-imidazo[1,5-a][1,4]diazepine-1-carboxamide] |  | > 10 | > 10
CNC(=O)[C@@H](NC(=O)c1nc(/C=C/c2ccccc2)n2c1CN(C)CCC2)C(C)(C)C [Compound 336, (S,E)-N-(3,3-dimethyl-1-(methylamino)-1-oxobutan-2-yl)-8-methyl-3-styryl-6,7,8,9-tetrahydro-5H-imidazo[1,5-a][1,4]diazepine-1-carboxamide] | − | > 10 | 
CNC(=O)[C@@H](NC(=O)c1nc(-c2ccc(F)cc2Cl)n2c1CN(C)CCC2)C(C)(C)C [Compound 337, (S)-3-(2-chloro-4-fluorophenyl)-N-(3,3-dimethyl-1-(methylamino)-1-oxobutan-2-yl)-8-methyl-6,7,8,9-tetrahydro-5H-imidazo[1,5-a][1,4]diazepine-1-carboxamide] | + | > 10 | 
CNC(=O)[C@@H](NC(=O)c1nc(-c2cccc(OC(F)(F)F)c2)n2c1CN(C)CCC2)C(C)(C)C [Compound 338, (S)-N-(3,3-dimethyl-1-(methylamino)-1-oxobutan-2-yl)-8-methyl-3-(3-(trifluoromethoxy)phenyl)-6,7,8,9-tetrahydro-5H-imidazo[1,5-a][1,4]diazepine-1-carboxamide] |  | > 10 | > 10
CNC(=O)[C@@H](NC(=O)c1nc(-c2ccc(OC(F)(F)F)cc2)n2c1CN(C)CCC2)C(C)(C)C [Compound 339, (S)-N-(3,3-dimethyl-1-(methylamino)-1-oxobutan-2-yl)-8-methyl-3-(4-(trifluoromethoxy)phenyl)-6,7,8,9-tetrahydro-5H-imidazo[1,5-a][1,4]diazepine-1-carboxamide] | − | > 10 | 
CNC(=O)[C@@H](NC(=O)c1nc(-c2ccc(C)cc2F)n2c1CN(C)CCC2)C(C)(C)C [Compound 340, (S)-N-(3,3-dimethyl-1-(methylamino)-1-oxobutan-2-yl)-3-(2-fluoro-4-methylphenyl)-8-methyl-6,7,8,9-tetrahydro-5H-imidazo[1,5-a][1,4]diazepine-1-carboxamide] | + | > 10 | 
CNC(=O)[C@@H](NC(=O)c1nc(-c2ccc3c(c2)OCO3)n2c1CN(C)CCC2)C(C)(C)C [Compound 341, (S)-3-(benzo[d][1,3]dioxol-5-yl)-N-(3,3-dimethyl-1-(methylamino)-1-oxobutan-2-yl)-8-methyl-6,7,8,9-tetrahydro-5H-imidazo[1,5-a][1,4]diazepine-1-carboxamide] | − | > 10 | 
CNC(=O)[C@@H](NC(=O)c1nc(-c2ccc(C#N)cc2)n2c1CN(C)CCC2)C(C)(C)C [Compound 342] |  | > 10 | > 10
CNC(=O)[C@@H](NC(=O)c1nc(-c2ccc(OC)cc2C)n2c1CN(C)CCC2)C(C)(C)C [Compound 343, (S)-N-(3,3-dimethyl-1-(methylamino)-1-oxobutan-2-yl)-3-(4-methoxy-2-methylphenyl)-8-methyl-6,7,8,9-tetrahydro-5H-imidazo[1,5-a][1,4]diazepine-1-carboxamide] |  | > 10 | > 10
CNC(=O)[C@@H](NC(=O)c1nc(-c2cnc(OC)nc2OC)n2c1CN(C)CCC2)C(C)(C)C [Compound 344, (S)-3-(2,4-dimethoxypyrimidin-5-yl)-N-(3,3-dimethyl-1-(methylamino)-1-oxobutan-2-yl)-8-methyl-6,7,8,9-tetrahydro-5H-imidazo[1,5-a][1,4]diazepine-1-carboxamide] |  | > 10 | > 10
CNC(=O)[C@@H](NC(=O)c1nc(-c2cccc(F)c2)n2c1CN(C)CCC2)C(C)(C)C [Compound 345, (S)-N-(3,3-dimethyl-1-(methylamino)-1-oxobutan-2-yl)-3-(3-fluorophenyl)-8-methyl-6,7,8,9-tetrahydro-5H-imidazo[1,5-a][1,4]diazepine-1-carboxamide] | + | > 10 | 
CNC(=O)[C@@H](NC(=O)c1nc(-c2cccc(OC)c2F)n2c1CN(C)CCC2)C(C)(C)C [Compound 346, (S)-N-(3,3-dimethyl-1-(methylamino)-1-oxobutan-2-yl)-3-(2-fluoro-3-methoxyphenyl)-8-methyl-6,7,8,9-tetrahydro-5H-imidazo[1,5-a][1,4]diazepine-1-carboxamide] | − | > 10 | 
CNC(=O)[C@@H](NC(=O)c1nc(-c2ccc(F)c(C)c2)n2c1CN(C)CCC2)C(C)(C)C [Compound 347, (S)-N-(3,3-dimethyl-1-(methylamino)-1-oxobutan-2-yl)-3-(4-fluoro-3-methylphenyl)-8-methyl-6,7,8,9-tetrahydro-5H-imidazo[1,5-a][1,4]diazepine-1-carboxamide] |  | > 10 | > 10
CNC(=O)[C@@H](NC(=O)c1nc(-c2cccnc2)n2c1CN(C)CCC2)C(C)(C)C [Compound 348, (S)-N-(3,3-dimethyl-1-(methylamino)-1-oxobutan-2-yl)-8-methyl-3-(pyridin-3-yl)-6,7,8,9-tetrahydro-5H-imidazo[1,5-a][1,4]diazepine-1-carboxamide] | + | > 10 | 
CNC(=O)[C@@H](NC(=O)c1nc(-c2cccs2)n2c1CN(C)CCC2)C(C)(C)C [Compound 349, (S)-N-(3,3-dimethyl-1-(methylamino)-1-oxobutan-2-yl)-8-methyl-3-(thiophen-2-yl)-6,7,8,9-tetrahydro-5H-imidazo[1,5-a][1,4]diazepine-1-carboxamide] | + | > 10 | 
CNC(=O)[C@@H](NC(=O)c1nc(-c2ccc(OC)c(C)c2)n2c1CN(C)CCC2)C(C)(C)C [Compound 350, (S)-N-(3,3-dimethyl-1-(methylamino)-1-oxobutan-2-yl)-3-(4-methoxy-3-methylphenyl)-8-methyl-6,7,8,9-tetrahydro-5H-imidazo[1,5-a][1,4]diazepine-1-carboxamide] | − | > 10 | 
CNC(=O)[C@@H](NC(=O)c1nc(-c2cc3ccccc3o2)n2c1CN(C)CCC2)C(C)(C)C [Compound 351, (S)-3-(benzofuran-2-yl)-N-(3,3-dimethyl-1-(methylamino)-1-oxobutan-2-yl)-8-methyl-6,7,8,9-tetrahydro-5H-imidazo[1,5-a][1,4]diazepine-1-carboxamide] | + | > 10 | 
CNC(=O)[C@@H](NC(=O)c1nc(-c2cscc2C)n2c1CN(C)CCC2)C(C)(C)C [Compound 352, (S)-N-(3,3-dimethyl-1-(methylamino)-1-oxobutan-2-yl)-8-methyl-3-(4-methylthiophen-3-yl)-6,7,8,9-tetrahydro-5H-imidazo[1,5-a][1,4]diazepine-1-carboxamide] | + | > 10 | 
CNC(=O)[C@@H](NC(=O)c1nc(-c2ccccc2F)n2c1CN(C)CCC2)C(C)(C)C [Compound 353, (S)-N-(3,3-dimethyl-1-(methylamino)-1-oxobutan-2-yl)-3-(2-fluorophenyl)-8-methyl-6,7,8,9-tetrahydro-5H-imidazo[1,5-a][1,4]diazepine-1-carboxamide] | + | > 10 | 
CNC(=O)[C@@H](NC(=O)c1nc(-c2csc3ccccc23)n2c1CN(C)CCC2)C(C)(C)C [Compound 354, (S)-3-(benzo[b]thiophen-3-yl)-N-(3,3-dimethyl-1-(methylamino)-1-oxobutan-2-yl)-8-methyl-6,7,8,9-tetrahydro-5H-imidazo[1,5-a][1,4]diazepine-1-carboxamide] | − | > 10 | 
